Values after ≈ are worked out from the molar mass of the structure shown.
Assays:
[1] = system: HER-2/neu positive breast cancer metastasized to lung and liver; experiment: Example III: breast cancer metastasized to lung and liver; type: in vivo, human; conditions: patient, oral 5 mg/kg twice daily
Description: After three months, the PPARγ ligand administration is continued in combination regimen with Taxol® at a dose of 175 mg/m^2 administered intravenously every three weeks.

[2] = system: non-small cell lung carcinoma where EGFR is overexpressed; experiment: Example VI: non-small cell lung carcinoma metastasized to liver; type: in vivo, human; conditions: patient, oral 5 mg/kg twice daily
Description: After one month, PPARγ ligand administration is continued in combination with infusion of cisplatin every four weeks at 60 mg/m^2 for 12 more weeks.

[3] = system: HER-2/neu positive colon cancer; experiment: Example V: after resection of colon cancer; type: in vivo, human; conditions: patient, oral 5 mg/kg twice daily for five years after resection
[4] = system: HER-2/neu positive breast cancer; experiment: Example II: adjuvant therapy with PPARγ ligand and HERCEPTIN; type: in vivo, human; conditions: patient, oral 5 mg/kg twice daily for one year, with HERCEPTIN 250 mg IV loading then 10 weekly doses of 125 mg
[5] = target: human PPARγ binding domain; conditions: scintillation proximity assay, radioligand [3H]BRL 49653; values reported in Henke et al, Collins et al, Cobb et al; cited from earlier work
[6] = system: HER-2/neu positive breast cancer metastasized to bone; experiment: Example IV: breast cancer metastasized to bone; type: in vivo, human; conditions: patient after failure of prior chemotherapy, oral 5 mg/kg twice daily plus HERCEPTIN
Description: After 90 days, oral cyclophosphamide at a dose of 3 mg/kg/day and doxorubicin administered intravenously weekly at a dose of 20 mg/m^2, are added to the drug regimen.

[7] = system: head and neck carcinoma where EGFR is overexpressed; experiment: Example VII: head and neck carcinoma; type: in vivo, human; conditions: after the 12 weeks of CETUXIMAB and cisplatin, oral 5 mg/kg twice daily for 12 weeks
Description: Concurrently cisplatin is infused every four weeks at 60 mg/m^2.

[8] = system: EGFR positive breast cancer; experiment: Example IX: adjuvant therapy after mastectomy; type: in vivo, human; conditions: patient, oral 5 mg/kg twice daily for five years after mastectomy
[9] = system: HER-2/neu positive breast cancer; experiment: Example I: adjuvant therapy after mastectomy; type: in vivo, human; conditions: patient, oral 5 mg/kg twice per day for five years after mastectomy
[10] = physchem; conditions: ph 7.4 buffer, pH 7.4, aqueous buffer
[11] = system: EGFR promoter; experiment: transient transfection assay, human EGFR promoter construct ligated to luciferase, 184B5 cells; type: cell-based; conditions: 0-25 μM, 24 hours, FIG. 2
Description: To determine whether PPARγ ligands inhibit EGFR promoter activity, a transient transfection assay was performed, 184B5 cells were transfected with 1.8 μg of a human EGFR promoter construct ligated luciferase (-1100/-19) and 0.2 μg pSVβgal (Promega Corp., Madison, Wis.). The EGFR promoter is described in Hudson, L. G., et al, Cell 62, 1165-1175 (1990), the whole of which is incorporated herein by reference. 184B5 cells were seeded at a density of 5×10^4 cells/well in 6-well dishes and grown to 50-60% confluence. For each well 2 μg of […] DNA were introduced into cells using 8 μg of LIPOFECTAMINE (Life Technologies, Inc., Grand Island, N.Y.) as per the manufacturers instructions. Following transfection, the cells were treated with ciglitazone (0, 5, 10, 15, 20 and 25 μM) or 15-d-PGJ2 (0, 5, 10, 15, 20, and 25 μM) for 24 hours. The activities of luciferase and β-galactosidase were measured in cellular extract as described in Mestre, J. R, et al, Cancer Res. 57, 1081-1085 (1997). The results are shown in FIG. 2 where luciferase activity represents data that have been normalized to β-galactosidase activity (columns, means; bars, S. D., n=6; * means p<0.01 compared to control).

[12] = system: EGFR in 184B5 mammary epithelial cells; experiment: immunoblot for EGFR in 184B5 cells; type: cell-based, human; conditions: ciglitazone 5-30 μM or 15-d-PGJ2 5, 10 μM, 24 hours
Description: The cells used were 184B5 cells. The 184B5 cell line was obtained from a collaborator and is an immortalized but non-tumorigenic human breast epithelial cell line that was established from a reduction mammaplasty and is described in Stampler, M. R, et al, Proc. Natl. Acad. Sci. USA 82, 2394-2398 (1985).
(§1) 184B5 cells were maintained in MEM-KBM mixed in a ratio of 1:1 (basal medium) containing epidermal growth factor (10 ng/ml), hydrocortisone (0.5 μg/ml), transferrin (10 μg/ml), gentamicin (5 μg/ml), and insulin (10 μg/ml) (growth medium). 184B5 cells were grown to 60% confluence, trypsinized with 0.05% trypsin-2 mM ethylenediaminotetraacetic acid and plated for experimental use.
184B5 cells were treated with vehicle (0.01% dimethyl sulfoxide), ciglitazone (5, 10, 20, 30 μM) or 15-d-PGJ2 (5, 10 μM) for 24 hours. Cell lysates were prepared in RIPA buffer. Lysates were sonicated for 20 seconds on ice and centrifuged at 10,000×g for 10 minutes to sediment the particulate material. The protein concentration of the supernatant was measured by the method of Lowry,. O. H., et al, J. Biol. Chem. 193, 265-275 (1951). Cellular lysate protein (100 μg/lane) was loaded onto a 10% SDS-polyacrylamide gel, electrophoresed and subsequently transferred onto a nitrocellulose membrane(Schleicher & Schuell Keene, N. H.). […]

[13] = system: HER-2/neu in 184B5/HER cells; experiment: immunoblot for HER-2/neu in 184B5/HER cells; type: cell-based, human; conditions: 25 μM ciglitazone or 20 μM 15-d-PGJ2, 24 hours
Excerpt: The 184B5/HER cell line was obtained from a collaborator and was derived by stably transfecting 184B5 cells with a mutationally activated HER-2/neu oncogene; these cells form rapidly growing tumors when injected into athymic nude mice. The 184B5/HER cell line is described in Pierce, J. H., et al., Oncogene 6, 1189-1194 (1991). The BT-474 cell line is a human breast cancer adenocarcinoma cell line which overexpresses HER-2/neu, and was obtained from the American Type Culture Collection (Manassas, Va.) and bears accession number ATCC HBT-20.
as §1, with “184B5/HER cells” for “184B5 cells”, “(5 μg/ml)” for “(5 μg/ml),”, “medium). […]” for “medium). 184B5”, “ethylenediaminotetraacetic acid,” for “ethylenediaminotetraacetic acid”, “use. […]” for “use.”
184B5/HER cells were treated with vehicle (0.01% dimethylsulfoxide), 25 μM ciglitazone (Biomol, Plymouth Meeting, Pennsylvania) or 20 μM 15-d-PGJ2 (Biomol, Plymouth Meeting, Pennsylvania) for 24 hours. […] The protein concentration of the supernatant was measured by the method of Lowry, O. H., et al, J. Biol. Chem. 193, 265-275 (1951). […]

[14] = system: HER-2/neu mRNA; experiment: Northern blotting for HER-2/neu mRNA in 184B5/HER cells; type: cell-based, human; conditions: 25 μM ciglitazone or 20 μM 15-d-PGJ2
Description: Northern blotting was performed to evaluate whether PPARγ ligands decrease levels of HER-2/neu mRNA. 184B5/HER cells were treated with vehicle (0.01% dimethyl sulfoxide), 25 μM ciglitazone or 20 μM 15-d-PGJ2. Total cellular RNA was isolated from cell monolayers using an RNA isolation kit from Qiagen Inc. 10 μg of RNA was added to each lane. The 10 μg of total cellular RNA per lane were electrophoresed in a formaldehyde-containing 1.2% agarose gel and transferred to nylon-supported membranes. The blot was hybridized with probes that recognized HER-2/neu mRNA (Santa Cruz Biotechnology, Inc., Santa Cruz, Calif.) and 18S rRNA cDNA (Ambion, Inc., Austin, Tex.).

[15] = system: HER-2/neu promoter; experiment: transient transfection assay, human HER-2/neu promoter construct ligated to luciferase, 184B5/HER cells; type: cell-based; conditions: 0-25 μM, 24 hours, FIG. 1
Description: To determine whether PPARγ ligands inhibit HER-2/neu promoter activity, a transient transfection assay was performed. 184B5/HER cells were transfected with 1.8 μg of a human HER-21neu promoter construct ligated to luciferase (-1571/--24) and 0.2 μg pSVβgal (Promega Corp., Madison Wis.). The HER-2/neu promoter (-1571/--24) is described in Hudson, L. G. et al, J. Biol. Chem. 265, 4389-4393 (3/90), the whole of which is incorporated herein by reference. The promoter constructs are described in Hudson, L. G., et al, Cell 62, 1165-1175(1990). 184B5/HER cells were seeded at a density of5×10^4 cells well in 6-well dishes and grown to 50-60% confluence. For each well, 2 μg of […] DNA were introduced into cells using 8 μg of LIPOFECTAMINE (Life Technologies, Inc., Grand Island, N.Y.) as per the manufacturer's instructions. Following transfection, the cells were treated with ciglitazone (0, 5, 10, 15, 20 and 25 μM) or 15d-PGJ2 (0, 5, 10, 15, 20 and 25 μM) for 24 hours.
The activities of luciferase and β-galactosidase were measured in cellular extract as described in Mestre, J. R. et al, Cancer Res. 57, 1081-1085 (1997).

[16] = system: Stage IV EGFR positive breast cancer tumors; experiment: Example VIII: breast cancer with Stage IV EGFR positive tumors; type: in vivo, human; conditions: oral 5 mg/kg twice daily in combination with CETUXIMAB and Taxol

SMILES	tumor burden [2]	recurrence of breast cancer [4]	pKi in binding assay using the human PPARγ binding domain [5]	tumor burden [6]	tumor burden [7]	recurrence of breast cancer [9]	also measured
CN(CCOc1ccc(C[C@H](Nc2ccccc2C(=O)c2ccccc2)C(=O)O)cc1)c1nc2ccccc2o1 [structure (II), 3-{4-[2-benzoxazol-2-ylmethylamino)ethoxy](phenyl}-(2S)-((2-benzoylphenyl)amino)propionic acid]	reduced tumor burden	Recurrence of breast cancer does not occur	8.83±0.05	reduced tumor burden	further reduced tumor burden	recurrence of breast cancer does not occur	tumor burden [1]: reduced tumor burden; recurrence of colon cancer [3]: Recurrence of colon cancer does not occur; recurrence of breast cancer [8]: Recurrence of breast cancer dose not occur
CCCOC(=O)c1ccccc1N[C@@H](Cc1ccc(OCCc2nc(-c3ccccc3)oc2C)cc1)C(=O)O [#65]	–	–	8.62±0.03	–	–	–	–
COC(=O)c1ccccc1N[C@@H](Cc1ccc(OCCc2nc(-c3ccccc3)oc2C)cc1)C(=O)O [GW7845, (S)-2-(1-carboxy-2-{4-[2-(5-methyl-2-phenyloxazol-4-yl)ethoxy]phenyl}ethylamino)benzoic acid methyl ester]	reduced tumor burden	Recurrence of breast cancer does not occur	–	reduced tumor burden	further reduced tumor burden	recurrence of breast cancer does not occur	solubility [10]: 300 µg/mL (≈ 599 µM)
CCCCC/C=C/C=C1/C(=O)C=C[C@@H]1C/C=C\CCCC(=O)O [15-d-PGJ2, 15-deoxy-Δ12, 14-prostaglandin J2]	–	–	–	–	–	–	EGFR promoter activity (luciferase normalized to β-galactosidase) [11]: inhibited EGFR promoter activity in a dose-dependent fashion; amounts of EGFR (immunoblot) [12]: decreased amounts of EGFR; amount of HER-2/neu (immunoblot) [13]: decreased the amount of HER-2/neu; amounts of HER-2/neu mRNA (Northern blot) [14]: decrease amounts of HER-2/neu mRNA; HER-2/neu promoter activity (luciferase normalized to β-galactosidase) [15]: inhibited HER-2 neu promoter activity in a dose-dependent fashion
Cc1oc(-c2ccccc2)nc1CCOc1ccc(C[C@H](Nc2ccccc2C(=O)OC(C)C)C(=O)O)cc1 [#66]	–	–	9.01±0.00	–	–	–	–
CCOC(=O)c1ccccc1N[C@@H](Cc1ccc(OCCc2nc(-c3ccccc3)oc2C)cc1)C(=O)O [#64]	–	–	8.52±0.03	–	–	–	–
CN(CCOc1ccc(CC2SC(=O)NC2=O)cc1)c1ccccn1 (stereo not drawn) [rosiglitazone]	reduced tumor burden	Recurrence of breast cancer does not occur	7.33±0.02	reduced tumor burden	further reduced tumor burden	Recurrence of breast cancer does not occur	tumor burden [1]: reduced tumor burden; recurrence of colon cancer [3]: Recurrence of colon cancer does not occur; recurrence of breast cancer [8]: Recurrence of breast cancer dose not occur; tumor burden [16]: reduced tumor burden
